Primed or numbered codes have the meaning given here. Ends that are not written are not given here. FITC′ = not defined here

The subject of data set [1] is KKU-213 cells. Nature of the data set: Flow cytometry binding of FITC-labeled peptide. Type of data set: cell-based, human. The procedure:
(§1) A million cells were prepared, fixed with 4% PFA, and blocked with 1% BSA at RT for 30 min. The cells were reacted with mouse anti-Trop2 antibody at RT for 1 h with agitation. Then, cells were reacted with Alexa Fluor 488-labeled anti-mouse IgG antibody at RT for 1 h. For peptide binding, cells were reacted with FITC-labeling peptide at 4° C. for 1 h with agitation. The stained cells were fixed with 4% PFA before analysis with a flow cytometer.
(§2) To examine the binding of CSTLNVESC (SEQ ID NO: 1) peptide to cells, CSTLNVESC (SEQ ID NO: 1) peptide was tagged with FITC fluorescence dye at the carboxy terminus. […] In contrast, NSSSVDK-FITC control peptide weakly bound to both cell lines. Binding of CSTLNVESC (SEQ ID NO: 1)-FITC peptide, but not NSSSVDK-FITC peptide, to Trop2-expressing KKU-213 cells was also observed by immunofluorescence microscopic analysis (FIG. 5B).

Data set [2] relates to KKU-055 cells. Nature of the data set: Flow cytometry binding of FITC-labeled peptide. In kind it is cell-based, human. The procedure: as §1
To examine the binding of […] (SEQ ID NO: 1) peptide to cells, […] (SEQ ID NO: 1) peptide was tagged with FITC fluorescence dye at the carboxy terminus. […] In contrast, NSSSVDK-FITC control peptide weakly bound to both cell lines. Binding of […] (SEQ ID NO: 1)-FITC peptide, but not NSSSVDK-FITC peptide, to Trop2-expressing KKU-213 cells was also observed by immunofluorescence microscopic analysis (FIG. 5B).
(In general: Flow cytometry measures light scatter and fluorescence of single cells or particles in a stream.)

Another data set relates to H460 lung tumor cells. Nature of the data set: FITC-peptide cell binding (FIG. 6B). In kind it is cell-based.
In data set [3] the test system is HeLa cervical tumor cells. Nature of the data set: FITC-peptide cell binding (FIG. 6B). In kind it is cell-based.
Data set [4] deals with Trop2-expressing KKU-213 cells. Nature of the data set: Immunofluorescence microscopic analysis of FITC-peptide binding. Type of data set: cell-based, human. As to the method: For co-localization assays, cells were reacted with FITC-conjugated peptide at 4° C. for 1 h and fixed with 4% PFA at RT for 10 min. Next, cells were reacted with mouse anti-Trop2 antibody at 4° C. overnight and then with Alexa Fluor 594-labeled anti-mouse IgG antibody (Thermo Fisher Scientific) at RT for 1 h. Cells were counter-stained with DAPI and enclosed with an anti-fade agent. The slides were examined using a confocal microscope.
as §2

The test system of data set [5] is Trop2-overexpressing HEK293T cells. Nature of the data set: FITC-peptide cell binding (FIG. 6A). Type of data set: cell-based, human.
Data set [6] relates to Trop2-overexpressing MCF7 breast tumor cells. Nature of the data set: FITC-peptide cell binding (FIG. 6B). In kind it is cell-based.
Data set [7] relates to KKU-055 cells. Nature of the data set: Cell binding affinity assay using the Ligand Tracer. On the set-up: species or system human. The procedure: To determine the cell binding affinity of CSTLNVESC (SEQ ID NO: 1) peptide, a binding assay using the Ligand Tracer was performed. The machine continuously monitored the CSTLNVESC (SEQ ID NO: 1)-FITC peptide binding to KKU-213 or KKU-055 cells that was dose and time-dependent.

For data set [8], the system named is Trop2-silenced KKU-213 cells. Nature of the data set: FITC-peptide binding after Trop2 silencing with siRNAs. Type of data set: cell-based, human. The settings on record: KKU-213 transfected with Trop2 siRNAs for 24 h. The text has this: To prepare Trop2-overexpressing cells for biopanning, pCMV6-AC-GFP plasmid including human Trop2 gene, tacstd2, (Origene, Rockville, MD, USA) was transfected into HEK293T cells using Lipofectamine 2000 (Thermo Fisher Scientific, Waltham, MA, USA). For Trop2 silencing, KKU-213 cells were transfected with a small-interfering RNA (siRNA) against Trop2 gene (Qiagen, Venlo, Netherlands) or control siRNA (Bioneer, Oakland, CA) using Lipofectamine RNAiMAX (Thermo Fisher Scientific). Two siRNAs, siTrop21 and siTrop22 have been designed specifically to target sequences; 5′-CCCGGGATCGTTTGCAAGTAA-3 (SEQ ID NO: 4)′ and 5′-TTGCGACATTGTGAAGGCTTA-3 (SEQ ID NO: 5)′. The silencing efficiencies were analyzed by Western blots.
For co-localization assays, cells were reacted with FITC-conjugated peptide at 4° C. for 1 h and fixed with 4% PFA at RT for 10 min. […]
To further examine whether the binding of CSTLNVESC (SEQ ID NO: 1)-FITC peptide to the Trop2-overexpressing cells was mediated by Trop2, Trop2 gene expression in KKU-213 cells was silenced using Trop2 siRNAs. Trop2 expression was reduced after transfection with Trop2 siRNAs for 24 h as determined by western blotting (FIG. 5C), immunofluorescence microscopy (FIG. 5D), and flow cytometry (FIG. 5E). […]

Data set [9] concerns KKU-213 subcutaneous tumor. Nature of the data set: Tumor homing assay (IVIS imaging). The procedure: Four-week-old BALB/c female nude mice were purchased from Orient Bio (Seongnam, Republic of Korea). The mice were cared for and maintained in conformance with the Guidelines of the Institutional Animal Care and Use Committee (IACUC) of Kyungpook National University (permission no. 2017-0077). The mice were maintained in specific-pathogen free condition, controlled temperature (22±2° C.), humidity (50±10%), and light/dark cycle (12:12 h). Sterile tablet food, water and bedding were provided ad libitum. The mice were injected subcutaneously with approximately two million KKU-213 cells resuspended in 100 μl DMEM. When the tumor size reached 200 mm^3 after approximately 4 weeks, the mice were intravenously injected with near-infrared Flamma Fluor 675-labeled peptides. After 2 h, the signal was detected using the In Vivo Imaging System (IVIS) (PerkinElmer, Waltham, MA, USA). During the analysis the mice were anesthetized with 2.5% isoflurane in a gas chamber supplied with oxygen flowmeter 0.8 L/min. […] The frozen tissues were prepared for histological examination.
To examine the tumor homing of […] (SEQ ID NO: 1) peptide, the peptide was conjugated with Flamma 675 near-infrared dye and intravenously injected into mice bearing KKU-213 subcutaneous tumor.

A further data set deals with KKU-213 tumor. Nature of the data set: Anti-tumor growth activity in tumor-bearing mice. Particulars: 10 mg/kg intravenous, three times per week; versus control peptide-targeted R7-KLA or combined CSTLNVESC, R7, and KLA. Type of data set: in vivo. The text has this:
(§3) To exploit the use of CSTLNVESC (SEQ ID NO: 1) peptide for targeted cancer therapy, a Trop2-targeted cytotoxic peptide consisting of CSTLNVESC (SEQ ID NO: 1), RRRRRRR (SEQ ID NO: 2) (R7), and KLAKLAKKLAKLAK (SEQ ID NO: 3) (KLA) peptides was synthesized and named CSTLNVESC (SEQ ID NO: 1)-R7-KLA. R7 is a well-known cell-penetrating peptide that enhances the internalization of peptides and proteins into cells. KLA is a cytotoxic peptide that may cause damage to mitochondrial membrane of mammalian cells when introduced into cells and induce cell death. CSTLNVESC (SEQ ID NO: 1)-R7-KLA was intravenously injected into mice bearing KKU-213 tumor (10 mg/kg, three times per week, FIG. 12A). CSTLNVESC (SEQ ID NO: 1)-targeted R7-KLA peptide reduced tumor volume (FIG. 12B) and tumor weight (FIG. 12C) more efficiently than the control peptide-targeted R7-KLA or combined treatment of CSTLNVESC (SEQ ID NO: 1), R7, and KLA.

A short description of data set [10]: Systemic side effects in treated tumor-bearing mice (body weight, blood markers). Particulars: after treatment, 10 mg/kg intravenous three times per week. Type of data set: in vivo.
Description: as §3

The subject of data set [11] is KKU-213 cells. Nature of the data set: Transwell migration assay. In kind it is cell-based, human. The settings on record: dose-dependent. As to the method:
(§4) Serum-starved KKU-213 cells were resuspended with serum-free medium containing peptide and added to the 8.0 μm pore polycarbonate insert of a Transwell chamber (Corning Life Sciences, Tewksbury, MA, USA). For the invasion assay, the membrane was coated with 0.3 μg Matrigel matrix (Corning Life Sciences) at 37° C. for 2 h before use. Serum-containing or serum-free medium was added to the reservoir and reacted at 37° C. overnight. The migrated or invaded cells were fixed and stained with 0.1% crystal violet solution at RT for 10 min. The stained cells were counted under a light microscope.
(§5) Trop2 is involved in EMT and metastasis, and to examine whether CSTLNVESC (SEQ ID NO: 1) peptide affects cell migration and invasion, trans-well chamber assays were performed.

A short description of data set [12]: Serum stability analysis by HPLC. The settings on record: mouse serum, 37° C., 24 h incubation, declined thereafter. Type of data set: in vitro ADME. The procedure: CSTLNVESC (SEQ ID NO: 1) peptide was stable until 16 h and declined thereafter (FIG. 9).
The subject of data set [13] is KKU-213 cells. Nature of the data set: Transwell invasion assay (Matrigel). In kind it is cell-based, human. The settings on record: dose-dependent. As to the method: as §4, §5
Data set [14] relates to KKU-055 cells. Nature of the data set: Cytotoxicity of peptide in cholangiocarcinoma cell line. In kind it is cell-based, human. Particulars: 24 h, concentration up to 256 μM. The procedure:
(§6) To examine whether CSTLNVESC (SEQ ID NO: 1) peptide affects cell survival, KKU-213 and KKU-055 cells were reacted with the peptide for 24 h.

Data set [15] deals with KKU-213 cells. The description is as above. Type of data set: cell-based, human. The settings on record: 24 h, concentration up to 256 μM. As to the method:
as §6

In data set [16] the target is T1, Trop2 (trophoblast antigen 2) expressed on human tumor cell lines (human, UniProt P09758 27-323).
T1 construct: whole, on cells; Endogenous membrane glycoprotein; also called tacstd2; Trop2-positive KKU-213 cells
T1 sequence (looked up): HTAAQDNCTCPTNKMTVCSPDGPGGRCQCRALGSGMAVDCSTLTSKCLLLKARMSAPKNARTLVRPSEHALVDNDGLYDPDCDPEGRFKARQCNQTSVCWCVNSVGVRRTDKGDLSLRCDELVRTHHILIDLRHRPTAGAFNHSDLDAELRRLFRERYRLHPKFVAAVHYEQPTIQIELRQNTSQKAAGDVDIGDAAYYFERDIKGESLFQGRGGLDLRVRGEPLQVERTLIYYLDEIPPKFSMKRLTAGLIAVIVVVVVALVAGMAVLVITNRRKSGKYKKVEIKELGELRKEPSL
Nature of the data set: Ligand Tracer, real-time binding of FITC-peptide to KKU-213 cells. The procedure:
To determine the cell binding affinity of […] (SEQ ID NO: 1) peptide, a binding assay using the Ligand Tracer was performed.

As for “NSSSVDK-FITC: FITC-labeled NSSSVDK control peptide (also: FITC label, site not given here) [reference compound]”, the “binding to cells (flow cytometry)” value with KKU-213 cells [1] and with KKU-055 cells [2] was “weakly bound” in each case.

For the molecule “CSTLNVESC (SEQ ID NO: 1)-FITC (CSTLNVESC-{FITC′}; cysteine pairing not given here) [… peptide tagged with FITC fluorescence dye at the carboxy terminus]”, the binding to cells result (with H460 lung tumor cells; in [3]; in data set [5]; in data set [6]) was “selectively bound” in each case. Moreover, the “binding to cells (immunofluorescence microscopy)” value in data set [4] is “observed”. Further, the “binding to cells (flow cytometry)” value in the data set on KKU-213 cells [1] is given as “bound to KKU-213 cells at higher levels than to KKU-055 cells”. Besides, the “binding (Ligand Tracer)” value in the data set on KKU-055 cells [7] is “hardly detected”. Further, the “binding to Trop2-silenced cells” value in [8] is on record as “reduced”.

As for “CSTLNVESC (SEQ ID NO: 1)-Flamma 675: CSTLNVESC peptide conjugated with Flamma 675 near-infrared dye (cysteine pairing not given here; also: conjugated with Flamma 675 near-infrared dye, site not given here)”, in data set [9] (mouse, in vivo), the “accumulation in tumor, ex vivo imaging and average photons in isolated organs” value is “accumulation”; the “average photons in tumor” value is given as “higher than those of the control peptide”. For the same molecule, the “tumor homing, whole-body imaging” value in [9] (mouse, in vivo, iv) is recorded as “homed to tumor more efficiently than the control peptide”.

As for “CSTLNVESC (SEQ ID NO: 1)-R7-KLA: Trop2-targeted cytotoxic peptide consisting of CSTLNVESC, RRRRRRR (R7), and KLAKLAKKLAKLAK (KLA) peptides (CSTLNVESCRRRRRRRKLAKLAKKLAKLAK)”, in the data set with KKU-213 tumor, the tumor volume result was “reduced” and the tumor weight result is “reduced”. Besides, in [10], the “level of kidney function marker BUN” value is listed as “within normal ranges”, the “level of kidney function marker creatinine” value is on record as “within normal ranges”, the “level of liver function enzyme ALP” value is “within normal ranges” and the “level of liver function enzyme ALT” value was “within normal ranges”. Moreover, in data set [10], the “level of liver function enzyme AST” value is recorded as “within normal ranges”.

Consider CSTLNVESC [CSTLNVESC (SEQ ID NO: 1)], for which the “accumulation and co-localization with Trop2 in tumor tissues (immunofluorescence)” value in data set [9] (anti-Trop2 antibody staining of tumor tissue) is “accumulated and co-localized with Trop2 in tumor tissues”. In data set [9] (isolated organs except kidney), the “average photons in other organs, versus control peptide” value is on record as “similar”. Also, the serum-induced migration result with KKU-213 cells [11] was “inhibited”. The “time until which peptide was stable in serum” value in data set [12] is 16 h. Moreover, in the data set on KKU-213 cells [13], the serum-induced invasion result was “inhibited”. The cytotoxicity result in the data set with KKU-055 cells [14] and in the data set on KKU-213 cells [15] was “No cytotoxicity” each time.

B1: CSTLNVESC (SEQ ID NO: 1)-FITC peptide (peptide)
peptide: CSTLNVESC-{FITC′}
modifications: cysteine pairing not given here
notes: Synthetic peptide (Fmoc), from a CX7C T7 phage library; also called FITC-conjugated peptide
The molecule B1 had a Kd in data set [16] of 5.21 µM.

For orientation: Kd means a measure of binding affinity in units of concentration. Higher therefore signals a looser complex.

Source of the values: US20260085091A1, “PEPTIDES THAT SELECTIVELY BIND TO Trop2 AND USE THEREOF” (KYUNGPOOK NATIONAL UNIVERSITY INDUSTRY-ACADEMIC COOPERATION …, priority 2022, published 2026).
